Data as given in patent US10912803B2, “Probiotic and polyphenol against neurodegeneration” (NESTEC S.A., priority 2012, dated 2021).

What was measured:
[1] = biological target: T1, size exclusion purified monomeric Aβ42 (LMW) (Homo sapiens, UniProt P05067); assay: Assay 1: Targeting monomeric Aβ assay, ThT fluorescence; type: biochemical; conditions: for LMW (effects of compounds compared to control without compounds) - signal intensity: 37° C; for Inhibition of Aβ fibrillization: LMW, ratio and time not stated
T1 construct: size exclusion purified monomeric Aβ42 (LMW)
Method: Assay 1: Targeting Monomeric Aβ Assay (Timeframe 24-48 Hrs) (See FIG. 1):
In this assay, it was started with size exclusion purified monomeric Aβ42 (LMW). This was incubated with a compound of interest (C) at 37° C. The extent of aggregation was then assessed at 24 and 48 hrs by Thioflavin T (ThT) fluorescence. […] However, it is difficult to infer from this assay alone at which point along the amyloid formation pathway the compound acts, i.e., does interfere with monomer to protofibrils transition or block protofibrils to fibril transition.
(§1) Aβ42 LMW and PF were used at a final concentration of […] and incubated alone or with the compounds at a ratio of 1:0.5 or 1:2.

[2] = biological target: T2, size exclusion purified protofibrillar mixture of Aβ42 (PF) (Homo sapiens, UniProt P05067); assay: Assay 2: Targeting protofibrillar Aβ assay, ThT fluorescence; type: biochemical; conditions: for PF (effects of compounds compared to control without compounds) - signal intensity: 37° C; for Inhibition of Aβ fibrillization: PF, ratio and time not stated
T2 construct: size exclusion purified protofibrillar mixture of Aβ42 (PF)
Method: Assay 2: Targeting Protofibrillar Aβ Assay (Timeframe 24-48 Hrs) (See FIGS. 1 and 2A-2D):
In this assay it was started with a size exclusion purified protofibrillar mixture of Aβ42 (PF). This was incubated with the compound of interest (C) at 37° C. The extent of aggregation was then assessed at 24 and 48 hrs by Thioflavin T (ThT) fluorescence. […] This could occur via at least two mechanisms; i) blocking protofibrils to fibril transition or ii) inducing the dissociation/disaggregation of protofibrils.
as §1

[3] = 24 h, ratio Aβ42:compound 1:0.5, Aβ42 10 pM

T1 sequence (P05067 672-713 limits assumed): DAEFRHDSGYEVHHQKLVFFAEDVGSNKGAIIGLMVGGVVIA
T2 sequence (P05067 672-713 limits assumed): as above

Compound	LMW (effects of compounds compared to control without compounds) - signal intensity ([1]; 24 h, ratio 1:2, Aβ42 10 pM)	LMW (effects of compounds compared to control without compounds) - signal intensity [1, 3]	LMW (effects of compounds compared to control without compounds) - signal intensity ([1]; 48 h, ratio 1:0.5, Aβ42 10 pM)	LMW (effects of compounds compared to control without compounds) - signal intensity ([1]; 48 h, ratio 1:2, Aβ42 10 pM)	Inhibition of Aβ fibrillization [1] [%]	PF (effects of compounds compared to control without compounds) - signal intensity ([2]; 24 h, ratio 1:0.5, Aβ42 10 pM)	PF (effects of compounds compared to control without compounds) - signal intensity ([2]; 24 h, ratio 1:2, Aβ42 10 pM)	PF (effects of compounds compared to control without compounds) - signal intensity ([2]; 48 h, ratio 1:0.5, Aβ42 10 pM)	PF (effects of compounds compared to control without compounds) - signal intensity ([2]; 48 h, ratio 1:2, Aβ42 10 pM)	Inhibition of Aβ fibrillization [2] [%]
O=C(/C=C/c1ccc(O)c(O)c1)O[C@@H](C(=O)O)[C@@H](O)C(=O)O [NP7, Caftaric acid]	Decrease	Decrease	Decrease	Decrease	42	Decrease	Decrease	Decrease	Decrease	35
Chicoric acid [NP5]	Decrease	Decrease	Decrease	Decrease	50	Decrease	Decrease	Decrease	Decrease	41
